In patent publication US10144758B2, “Deuterated bile acids” (Metselex, Inc., priority 2013, dated 2018):

System: primary rat hepatocytes
Experiment: DCA-induced cytotoxicity, LDH release
Type: cell-based
Method: Primary rat hepatocytes were isolated from male rats (100-150 grams) by collagenase perfusion (as described by Solá S, et al., 2003, Journal of Biological Chemistry 278: 48831-48838)). Briefly, rats were anesthetized with phenobarbital sodium (100 mg/kg body weight) injected into the peritoneal cavity. After administration of heparin (200 units/kg body weight) in the tail vein, the animal's abdomen was opened and the portal vein exposed and cannulated. The liver was then perfused at 37° C. in situ with a calcium-free Hanks' Balanced Salt Solution (HBSS) for about 10 minutes, and then with 0.05% collagenase type IV in calcium-present HBSS for another 10 minutes. Hepatocyte suspensions were obtained by passing collagenase-digested livers through 125 μm gauze and washing cells in Complete William's E medium (William's E medium, Sigma-Aldrich Corp., St Louis, Mo., USA) supplemented with 26 mM sodium bicarbonate, 23 mM HEPES, 0.01 units/mL insulin, 2 mM L-glutamine, 10 nM dexamethasone, 100 units/mL penicillin, and 10% heat-inactivated fetal bovine serum (Invitrogen Corp., Carlsbad, Calif., USA). Viable primary rat hepatocytes were enriched by low-speed centrifugation at 200 g for 3 minutes. Cell viability was determined by trypan blue exclusion and was typically 80-85%. After isolation, hepatocytes were resuspended in Complete William's E medium and plated on PrimariaTM tissue culture dishes (BD Biosciences, San Jose, Calif., USA) at 5×10^4 cells/cm^2. Cells were maintained at 37° C. in a humidified atmosphere of 5% CO2 for 6 hours to allow attachment. Plates were then washed with medium to remove dead cells and incubated in Complete William's E medium supplemented with either 100-400 μM UDCA (Sigma-Aldrich Corp.), 100-400 μM deuterated UDCA (compound 5), or no addition (control). Eight hours after pre-incubation, cells were exposed to 1 nM recombinant human TGF-β1 (R&D Systems Inc., Minneapolis, Minn., USA) for 36 hours, or to 50 or 100 μM DCA for 16 hours before processing for cell viability, cytotoxicity and apoptosis assays. The ApoTox-GloTM Triplex Assay (Promega Corp., Madison, Wis., USA) was used to evaluate cell viability, cytotoxicity and caspase-3/7 activity, according to the manufacturer's protocol, using a GloMax+ Multi Detection System (Promega Corp.). General cell death was also evaluated using the lactate dehydrogenase (LDH) Cytotoxicity Detection Kit^PLUS (Roche Diagnostics GmbH, Mannheim, Germany), following the manufacturer's instructions. FIG. 7 illustrates that Compound 5 prevents DCA-induced cytotoxicity and apoptosis in primary rat hepatocytes. […] Results are expressed as means±SEM of at least three experiments. *p<0.01 from control; § p<0.05 and †p<0.01 from respective DCA.

Molecule	inhibition of DCA-induced LDH release (50 μM DCA 16 hours, 100 μM compound pre-incubated 8 hours, FIG. 7A) [%]	protective effect on LDH release greater than UDCA (50 μM DCA, Compound 5 versus UDCA)	protection against DCA-induced LDH release (100 μM DCA, compared with 50 μM DCA)	inhibition at 100 µM (Rattus norvegicus, Hepatocyte, 50 μM DCA 16 hours, 100 μM compound pre-incubated 8 hours, FIG. 7A) [%]
7,8-[^2H]-3α,7α-dihydroxy-5β-cholan-24-oic acid/7-[^2H]-3α,7α-dihydroxy-5β-cholan-24-oic acid [Compound 5]	90	more than 10%	Slightly reduced protection	–
C[C@H](CCC(=O)O)[C@H]1CC[C@H]2[C@@H]3[C@@H](O)C[C@@H]4C[C@H](O)CC[C@]4(C)[C@H]3CC[C@]12C [UDCA, Ursodeoxycholic acid, reference compound]	–	–	–	70
